{
  "source": "paper PMC5954419",
  "about": "(Biochemistry, 2017)",
  "biological_target": "T1, MGST1 (unactivated) (Rattus norvegicus, UniProt P08011)",
  "T1 sequence (P08011 2-155)": "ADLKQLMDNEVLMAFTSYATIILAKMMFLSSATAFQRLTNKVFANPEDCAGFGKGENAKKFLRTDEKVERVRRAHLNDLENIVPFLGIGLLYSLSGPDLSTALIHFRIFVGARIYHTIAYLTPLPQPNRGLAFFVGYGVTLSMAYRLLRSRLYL",
  "assay": "steady-state spectrophotometric product formation",
  "format": "biochemical",
  "conditions": "5 mM GSH, 5 °C, pH 6.5, 0.1 M potassium phosphate, 0.1% Triton X-100; unactivated enzyme",
  "data": [
    {"smiles": "O=[N+]([O-])c1ccc(Cl)c([N+](=O)[O-])c1", "note": "[CDNB, 1-Chloro-2,4-dinitrobenzene]", "values": [
      {"measurement": "Km", "result": "11 ± 2", "unit": "µM"}
    ]}
  ]
}
